# Measurements from US20240309090A1, “MODULATION OF ANDROGEN SIGNALING TO INNATE IMMUNE KILLING OF PROSTATE CANCER” (Brown University, priority 2023, published 2024).
# Tests used:
# [1] = test system: PC cell lines (LNCap, 22Rv1, DU145, PC3); experiment: Co-cultures of PC cell lines with NK cells (1:1), immune-mediated PC killing; type: cell-based; settings: for immune-mediated PC killing effect: Example 2, PC with NK-92 cells and patient-derived NK cells, within 24 hrs
# Protocol: Prostate cancer cell lines were dyed with the blue CMAC live-cell dye (Thermo Fisher Scientific #C2110, per manufacturer protocol). Blue-fluorescent cancer cells were plated at a density of 10,000 cells per well of a 48-well plate. NK-92 cells were dyed with green CMFDA (Cayman Chemical Company #19583, per manufacturer protocol). Green-fluorescent NK-92 cells were added to the blue-fluorescent cancer cells at a 1:1 ratio. Enzalutamide (10 μM), darolutamide (20 μM), and 1 μM ethidium homodimer (EthD-1) were added at the same time as the NK cells. After 24 hours of co-culture, images of live cancer cells, live NK cells, and dead cells were taken using a fluorescent microscope. The co-culture experiments were run with internal control conditions and as a single treatment. Normalization was performed after analysis to take baseline death conditions into each experiment run. To optimize the high output of these experiments, a subset of co-cultures were performed using the ImageXpress® Micro Confocal High-Content Imaging. This analysis maintained the experiment conditions, drug concentrations, and the dyeing process. When GFP-labeled tumor cells were used for culture assays, they were added in a 1:1 ratio. Cell adhered over 24 h, and when patient-derived NK cells were added, a control well was trypsinized, and cells resuspended and counted to adjust a 1:1 ratio before treatment addition. The experiments with blocking antibodies were performed using the ImageXpress system. TRAIL blocking ab was purchased from Santa Cruz TRAIL Antibody (RIK-2): sc-56246, and IFN gamma blocking Monoclonal Antibody (NIB42, #6-7318-81) was purchased from Thermo Fisher. The blocking mAb was added when NK cells were combined with tumor cells.
# Live cancer cells, NK cells, and dead cells were quantified using FIJI (Fiji Is Just ImageJ) software for images derived from fluorescent co-culture images. Images from the ImageXpress system were quantified using MetaXpress cytoplasmic/nuclear staining software. The percent of dead tumor cells in each well was quantified, and this percentage was normalized by subtracting baseline death from cancer cell-only wells, NK cell-only wells, or both. A two-way ANOVA was used to calculate the interaction effect between drug treatment and NK cells.
# In groups with a significant interaction effect, data was further normalized in the cancer cell+NK cells+drug treatment well by subtracting out death in the cancer cell+drug well. A one-way ANOVA and multiple comparison analysis with subsequent t-tests were used to calculate the statistical significance of the difference between this group and the cancer cell+NK cell well. GraphPad Prism Version 9.5.1 was used for statistical analysis.
# We conducted cell viability assays to investigate the effect of Enza and Daro on PC cells (LNCap, 22Rv1 [ARv7 mutation], DU145, PC3 [AR-]) and NK-92 cells. We performed co-culture experiments with PC and NK cells in a 1:1 ratio and analyzed immune cell-mediated tumor cell killing (ImageXpress Confocal HT). Cytokine profiling (Luminex 200) of culture supernatants was performed following treatment with ARi−/+ and anti-IFN-γ antibodies. In vivo studies were performed in NCr Nude mice harboring subcutaneous PC tumors treated orally with Daro (50 mg/kg/bid) and Enza (30 mg/kg/bid) for 4 weeks.
# We performed ATP-based (CellTiter-Glo) viability assays to investigate the effect of Enzalutamide and Darolutamide on PC cell lines (LNCap, 22Rv1 [ARv7 mutation], DU145, PC3 [AR-]) and NK-92 cells. We performed co-culture experiments with PC and NK cells at a 1:1 ratio throughout 4 h, 6 h, 12 h, 24 h, and 48 h periods. We analyzed immune cell-mediated tumor cell killing in the presence of Enza and Darolutamide (ImageXpress Confocal HT). Western Blotting was performed to evaluate different protein expression levels and their regulation related to sensitivity in mediating immune-mediated cell killing (apoptotic family). […]
# 22Rv1 cell line = experiment: Flow cytometry of HLA-E / PD-L1 surface expression on 22Rv1; type: cell-based; settings: for HLA-E surface expression, mean fluorescence intensity (MFI): 22Rv1, enza 15 μM, daro 20 μM, 48 h; for surface levels of HLA-E / surface levels of PD-L1: Example 2, 22Rv1
# Protocol: The effect of ARi on the NKG2A ligand, HLA-E, was investigated by flow cytometry on PCa cells treated with enza and daro.
# PCa cells were plated at a density of 3×10^5 cells per well of a 6-well plate and adhered overnight. […] After treatment, cells were trypsinized, stained, and incubated (Cell Staining Buffer SouthernBiotech #0225-01S) with the corresponding antibody for 45-60 min at 4° C. Viability dye was added with each run. NK-92 cells and patient-derived cells were stained similarly. Markers used for experiments included: Thermofisher HLA-E Monoclonal Antibody (3D12HLA-E), Alexa Fluor™ 488, eBioscience™, CD274 (PD-L1, B7-H1) Monoclonal Antibody (MIH1), eFluor™ 450, eBioscience™, Cell Signaling PD-1 (D4W2J) XPR Rabbit mAb, SYTOX™ Orange Dead Cell Stain, for flow cytometry, BioLegend APC anti-human CD159a (NKG2A) Antibody #375108, BioLegend APC anti-human CD69 Antibody #310909, BioLegend Alexa Fluor® 647 anti-human CD137 (4-1BB) [4B4-1] #309823. For staining of the patient-derived PBMCs and subsequent NK cell characterization, the following antibodies were used: BioLegend Anti-Perforin Mouse Monoclonal Antibody (PerCP Cy5.50, clone: dG9) #308113, BioLegend Anti-Granzyme B Mouse Monoclonal Antibody (FITC, clone: GB11) #515403, BioLegend Anti-CD56 Mouse Monoclonal Antibody (Alexa Fluor® 700, clone: 5.1H1) #362521, and BioLegend (PE anti-human CD45 Antibody) #304008.
# The effect of androgen pathway inhibitors in the expression of HLA-E, a negative and key negative modulator of NK cell function, was also performed using Flow Cytometry. PD-L1 expression levels were also measured. In advance, The NK cell immune checkpoint inhibitor monalizumab (targeting NKG2A and its ligand, HLA-E) was also combined with ARi.
# [2] = Example 1, PC + NK-92, within 24 hours
# [3] = Example 2, PC + NK-92, within 24 hours, blocking mAbs 10 ug/ml
structure (smiles),measurement,setting,value
CC(O)c1cc(C(=O)N[C@@H](C)Cn2ccc(-c3ccc(C#N)c(Cl)c3)n2)n[nH]1 (stereo partly drawn) [darolutamide],immune-mediated PC killing,[1]; [2],41%
same,immune-mediated PC killing,[1]; [3],36%
same,immune-mediated PC killing effect,[1],36%
same,"HLA-E surface expression, mean fluorescence intensity (MFI)",22Rv1 cell line,30.5±2.69×10^3
same,surface levels of HLA-E,22Rv1 cell line,did not change significantly
same,surface levels of PD-L1,22Rv1 cell line,did not change significantly
CNC(=O)c1ccc(N2C(=S)N(c3ccc(C#N)c(C(F)(F)F)c3)C(=O)C2(C)C)cc1F [enzalutamide],immune-mediated PC killing,[1]; [2],36%
same,immune-mediated PC killing,[1]; [3],40%
same,immune-mediated PC killing effect,[1],40%
same,"HLA-E surface expression, mean fluorescence intensity (MFI)",22Rv1 cell line,41.14+7.6×10^3
same,surface levels of HLA-E,22Rv1 cell line,did not change significantly
same,surface levels of PD-L1,22Rv1 cell line,did not change significantly
